From US5081126A, “Quinolyl- and isoquinolyl-methoxyphenyl-dithioacetyl derivatives useful as antiinflammatory agents” (Fujisawa Pharmaceutical Co., Ltd., priority 1987, dated 1992)
Structures can show the parent of a compound that is named as a salt.

tested on: SRS-A (Slow Reacting Substance of Anaphylaxis) synthesis in rat polymorpholeukocyte (PMN); assay: Inhibiting activity of SRS-A (Slow Reacting Substance of Anaphylaxis) synthesis in rat polymorpholeukocyte (PMN) using the calcium ionophore; i-LTC4 by radioimmunoassay; format: cell-based; conditions: 0.25 h, 10 μM A23187, 15 min at 37° C., i-LTC4 readout
Protocol: Test : Inhibiting activity of SRS-A (Slow Reacting Substance of Anaphylaxis) synthesis in rat polymorpholeukocyte (PMN) of using the calcium ionophore
Preparation of PMN from rat
Male Spraque-Dawley rats weighing 250-300 g were anesthetized with ether and each was injected intraperitoneally with 20 ml of 0.1% glycogen (from Oyster). After 20 hours the rats were sacrificed and PMN were recovered in rinse of the peritoneal cavity with 10 ml Dulbeccos PBS (components in G/L : CaCl 0.1, KH2 PO4 0.2, MgCl2.6H2 O 0.1, NaCl 8.0, Na2 HPO4.7H2 O 2.16; pH 7.4). These rinses were filtered through nylon wool filter and centrifuged for 5 min at 1000 xg. The pellet was suspended in Dulbeccos PBS and centrifuged for 5 min at 1000 xg. The pellet was resuspended in Dulbeccos PBS and adjusted the cell concentration to 10^7 cells/ml with Dulbeccos PBS.
Samples were dissolved in ethanol and dispersed in Dulbeccos PBS to give a concentration of 10^-8 to 10^-3 M. Antibiotic A23187; calcium ionophor (Dehring Diagnostics; (hereinafter referred to A23187) in DMSO (10mM) was diluted with Dulbeccos PBS tc give the concentration of 1 mM. Aliquots of the cell suspension (1×10^7 cells/ml, 0.98 ml) were equilibrated for 30 min at 37° C. Solution of sample(10 ul) was added and incubated for 15 min at 37° C. before the addition of 10 μl of A23187 solution. Thus the final incubation volume of 1 ml contained approximately 1×10^7 cells, 10^-10 to […] M samples and 10 μM A23187. Incubation with A23187 were continued for 15 min at 37° C. The reactions were terminated by setting the assay tubes in ice bath to chill as rapidly as possible to 4° C. The test tubes were centrifuged at 1500 xg for 5 min at 4° C. and decanted the supernatants into the tubes and kept cold prior to assaying.
Determination of immunoreactive LTC4 (i-LTC4)
The concentration of i-LTC4 in the cell-free supernatants from the incubations were determined by specific radioimmunoassay. The mean values of i-LTC4 (these incubations were carried out in duplicate) of each sample were calculated and the effect of samples on the synthesis of the leukotrienes was presented as a percentage of the value in the absence of samples.

| IC50 | Compound |
| --- | --- |
| 330 nM | CCCCCSC(SCCCCC)c1cccc(OCc2ccc3ccccc3n2)c1 [Example 8, 2-[[[3-Bis(pentylthio)methyl]phenoxy]methyl]quinoline hydrochloride] |
| 160 nM | CCCCSC(SCCCC)c1cccc(OCc2ccc3ccccc3n2)c1 [Example 7, 2-[[[3-Bis(butylthio)methyl]phenoxy]methyl]quinoline hydrochloride] |
| 520 nM | CCCSC(SCCC)c1cccc(OCc2ccccn2)c1 [Example 2, 2-[[[3-Bis(propylthio)methyl]phenoxy]methyl]pyridine hydrochloride] |
| 1100 nM | c1ccc(SC(Sc2ccccc2)c2cccc(OCc3ccc4ccccc4n3)c2)cc1 [Example 10, 2-[[[3-Bis(phenylthio)methyl]phenoxy]methyl]quinoline hydrochloride] |
| 1400 nM | c1ccc(CSC(SCc2ccccc2)c2cccc(OCc3ccc4ccccc4n3)c2)cc1 [Example 11, 2-[[[3-Bis(benzylthio)methyl]phenoxy]methyl]quinoline] |
| 850 nM | CCCSC(SCCC)c1cccc(OCc2ncc3ccccc3n2)c1 [Example 22, 2-[[[3-Bis(propylthio)methyl]phenoxy]methyl]quinazoline hydrochloride] |
| 39 nM | CCCSC(SCCC)c1cccc(OCc2ccc3ccccc3n2)c1 [Example 3, 2-[[[3-bis(propylthio)methyl]phenoxy]methyl]quinoline hydrochloride] |
| 130 nM | CCSC(SCC)c1cccc(OCc2ccc3ccccc3n2)c1 [Example 6, 2-[[[3-Bis(ethylthio)methyl]phenoxy]methyl]quinoline hydrochloride] |
| 300 nM | CCCSC(SCCC)c1cccc(OCc2nc3ccccc3s2)c1 [Example 1, 2-[[[3-bis(propylthio)methyl]phenoxy]methyl]benzothiazole] |
| 100 nM | CC(C)SC(SC(C)C)c1cccc(OCc2ccc3ccccc3n2)c1 [Example 9, 2-[[[3-Bis(isopropylthio)methyl]phenoxy]methyl]quinoline hydrochloride] |
| 110 nM | CC(C)SC(SC(C)C)c1cccc(OCc2nc3ccccc3s2)c1 [Example 16, 2-[[[3-Bis(isopropylthio)methyl]phenoxy]methyl]benzothiazole] |
| 110 nM | CCCSC(SCCC)c1ccc(OCc2ccc3ccccc3n2)cc1 [Example 5, 2-[[[4-Bis(propylthio)methyl]phenoxy]methyl]quinoline hydrochloride] |
